Here are results for 30 compounds from patent US20210392895A1, “NOVEL OXADIAZOLES” (PI INDUSTRIES LIMITED, priority 2018, published 2021).

The pest or weed control is how far the test organism was held down.

Bounds are passed on as bounds.

For the test, the system named is Phakopsora pachyrhizi. Put plainly: Phakopsora pachyrhizi test in soybean (greenhouse, preventive activity, disease severity rating). In kind it is in vivo. The conditions noted are these: preventive spray on soybean, compared to the untreated check. The protocol: To test the preventive activity of compounds, healthy young soybean plants, raised in the greenhouse, were sprayed with the active compound solution at the stated application rates inside spray cabinets using hallowcone nozzles. One day after treatment, the plants were inoculated with a suspension containing 2.1×10^6 Phakopsora pachyrhizi spores. The inoculated plants were then kept in the greenhouse chamber at 25° C. temperature and 90% relative humidity for disease expression. A visual assessment of the compound's performance was carried out by rating the disease severity (0-100% scale) on treated plants on 3, 7, 10 and 15 days after application. Efficacy (% control) of the compounds was calculated by comparing the disease rating in the treatment with the one of the untreated control. The treated plants were also assessed for plant compatibility by recording symptoms like necrosis, chlorosis and stunting.
Take `C[N+]1(C)CC[C@H](Oc2ccc(-c3noc(C(F)(F)F)n3)cn2)C1` [Compound 51, (S)-1,1-dimethyl-3-((5-(5-(trifluoromethyl)-1,2,4-oxadiazol-3-yl)pyridin-2-yl)oxy)pyrrolidin-1-ium 2,2,2-trifluoroacetate]: the pest or weed control at 500 ppm is over 70%.
Next, `O=C(c1ccccc1F)N1CC[C@H](Oc2ccc(-c3noc(C(F)(F)F)n3)cc2F)C1` [Compound 52, (S)-(3-(2-fluoro-4-(5-(trifluoromethyl)-1,2,4-oxadiazol-3-yl)phenoxy)pyrrolidin-1-yl)(2-fluorophenyl)methanone]: over 70%.
Then `COc1ccc(C(=O)N2CC[C@H](Oc3ccc(-c4noc(C(F)(F)F)n4)cc3F)C2)cc1` [Compound 53, (S)-(3-(2-fluoro-4-(5-(trifluoromethyl)-1,2,4-oxadiazol-3-yl)phenoxy)pyrrolidin-1-yl)(4-methoxyphenyl)methanone], with over 70%; and `O=C(c1cccc(F)c1)N1CC[C@H](Oc2ccc(-c3noc(C(F)(F)F)n3)cc2F)C1` [Compound 54, (S)-(3-(2-fluoro-4-(5-(trifluoromethyl)-1,2,4-oxadiazol-3-yl)phenoxy)pyrrolidin-1-yl)(3-fluorophenyl)methanone], with over 70%.
Then `O=C(c1cncnc1)N1CC[C@H](Oc2ccc(-c3noc(C(F)(F)F)n3)cc2)C1` [Compound 57, (S)-pyrimidin-5-yl(3-(4-(5-(trifluoromethyl)-1,2,4-oxadiazol-3-yl)phenoxy)pyrrolidin-1-yl)methanone], with over 70%.
`CC(C)(C)OC(=O)N1CC[C@H](Oc2ccc(-c3noc(C(F)(F)F)n3)c(F)c2)C1` [Compound 62, tert-butyl (S)-3-(3-fluoro-4-(5-(trifluoromethyl)-1,2,4-oxadiazol-3-yl)phenoxy)pyrrolidine-1-carboxylate]: the pest or weed control at 500 ppm is over 70%.
Next, `O=C(c1ccccc1F)N1CC[C@H](Oc2ccc(-c3noc(C(F)(F)F)n3)c(F)c2)C1` [Compound 63, (S)-(3-(3-fluoro-4-(5-(trifluoromethyl)-1,2,4-oxadiazol-3-yl)phenoxy)pyrrolidin-1-yl)(2-fluorophenyl)methanone]: over 70%; `O=C(c1cccc(F)c1)N1CC[C@H](Oc2ccc(-c3noc(C(F)(F)F)n3)c(F)c2)C1` [Compound 64, (S)-(3-(3-fluoro-4-(5-(trifluoromethyl)-1,2,4-oxadiazol-3-yl)phenoxy)pyrrolidin-1-yl)(3-fluorophenyl)methanone]: over 70%.
Next, `O=C(c1cccnc1)N1CC[C@H](Oc2ccc(-c3noc(C(F)(F)F)n3)c(F)c2)C1` [Compound 65, (S)-(3-(3-fluoro-4-(5-(trifluoromethyl)-1,2,4-oxadiazol-3-yl)phenoxy)pyrrolidin-1-yl)(pyridin-3-yl)methanone]: over 70%.
On to `O=S(=O)(c1ccccc1)N1CC[C@@H](Oc2ccc(-c3noc(C(F)(F)F)n3)cn2)C1` [Compound 71, (R)-3-(6-((1-(phenylsulfonyl)pyrrolidin-3-yl)oxy)pyridin-3-yl)-5-(trifluoromethyl)-1,2,4-oxadiazole], for which the pest or weed control at 500 ppm was over 70%.
Take `O=C(c1ccccc1F)N1CC[C@@H](Oc2ccc(-c3noc(C(F)(F)F)n3)cn2)C1` [Compound 74, (R)-(2-fluorophenyl)(3-((5-(5-(trifluoromethyl)-1,2,4-oxadiazol-3-yl)pyridin-2-yl)oxy)pyrrolidin-1-yl)methanone]: the pest or weed control at 500 ppm was over 70%.
In turn, `O=C(c1cccnc1)N1CC[C@@H](Oc2ccc(-c3noc(C(F)(F)F)n3)cn2)C1` [Compound 79, (R)-pyridin-3-yl(3-((5-(5-(trifluoromethyl)-1,2,4-oxadiazol-3-yl)pyridin-2-yl)oxy)pyrrolidin-1-yl)methanone] displayed a pest or weed control at 500 ppm of over 70%.
Then `CN(c1ccc(-c2noc(C(F)(F)F)n2)cc1)C1CN(C(=O)OC(C)(C)C)C1` [Compound 80, tert-butyl 3-(methyl(4-(5-(trifluoromethyl)-1,2,4-oxadiazol-3-yl)phenyl)amino)azetidine-1-carboxylate], with over 70%; and `O=C(c1ccccc1)N1CCC(Oc2ccc(-c3noc(C(F)(F)F)n3)cc2)CC1` [Compound 81, phenyl(4-(4-(5-(trifluoromethyl)-1,2,4-oxadiazol-3-yl)phenoxy)piperidin-1-yl)methanone], with over 70%.
For the compound `CC(C)(C)OC(=O)N1CC(N(c2ccc(-c3noc(C(F)(F)F)n3)cc2)c2ccc(-c3noc(C(F)(F)F)n3)cc2)C1` [Compound 82, tert-butyl 3-(bis(4-(5-(trifluoromethyl)-1,2,4-oxadiazol-3-yl)phenyl)amino)azetidine-1-carboxylate], the pest or weed control at 500 ppm is over 70%.
Then `CC(C)(C)OC(=O)N1CCC(Oc2ccc(-c3noc(C(F)(F)F)n3)cc2)CC1` [Compound 84, tert-butyl 4-(4-(5-(trifluoromethyl)-1,2,4-oxadiazol-3-yl)phenoxy)piperidine-1-carboxylate], with over 70%; and `CN(c1ccc(-c2noc(C(F)(F)F)n2)cc1)C1CN(C(=O)c2cccc(Cl)c2)C1` [Compound 88, (3-chlorophenyl)(3-(methyl(4-(5-(trifluoromethyl)-1,2,4-oxadiazol-3-yl)phenyl)amino)azetidin-1-yl)methanone], with over 70%.
Then `CN(c1ccc(-c2noc(C(F)(F)F)n2)cc1)C1CN(C(=O)c2ccc(C(F)(F)F)cc2)C1` [Compound 101, (3-(methyl(4-(5-(trifluoromethyl)-1,2,4-oxadiazol-3-yl)phenyl)amino)azetidin-1-yl)(4-(trifluoromethyl)phenyl)methanone], with over 70%.
Then `O=C(c1ccc(C(F)(F)F)cc1)N1CCC(Oc2ccc(-c3noc(C(F)(F)F)n3)cc2)CC1` [Compound 102, (4-(4-(5-(trifluoromethyl)-1,2,4-oxadiazol-3-yl)phenoxy)piperidin-1-yl)(4-(trifluoromethyl)phenyl)methanone], with over 70%; and `O=S(=O)(c1ccccc1)N1CC[C@H](Oc2ccc(-c3noc(C(F)(F)F)n3)cn2)C1` [Compound 104, (S)-3-(6-((1-(phenylsulfonyl)pyrrolidin-3-yl)oxy)pyridin-3-yl)-5-(trifluoromethyl)-1,2,4-oxadiazole], with over 70%; and `COc1ccc(S(=O)(=O)N2CC[C@H](Oc3ccc(-c4noc(C(F)(F)F)n4)cn3)C2)cc1` [Compound 105, (S)-3-(6-((1-((4-methoxyphenyl)sulfonyl)pyrrolidin-3-yl)oxy)pyridin-3-yl)-5-(trifluoromethyl)-1,2,4-oxadiazole], with over 70%.
`O=S(=O)(C1CC1)N1CC[C@H](Oc2ccc(-c3noc(C(F)(F)F)n3)cn2)C1` [Compound 106, (S)-3-(6-((1-(cyclopropylsulfonyl)pyrrolidin-3-yl)oxy)pyridin-3-yl)-5-(trifluoromethyl)-1,2,4-oxadiazole] gave a pest or weed control at 500 ppm of over 70%.
In the case of `Cc1ccc(S(=O)(=O)N2CC[C@H](Oc3ccc(-c4noc(C(F)(F)F)n4)cn3)C2)cc1` [Compound 107, (S)-3-(6-((1-tosylpyrrolidin-3-yl)oxy)pyridin-3-yl)-5-(trifluoromethyl)-1,2,4-oxadiazole], the pest or weed control at 500 ppm was over 70%.
Next, `O=S(=O)(c1cccc(Cl)c1)N1CC[C@H](Oc2ccc(-c3noc(C(F)(F)F)n3)cn2)C1` [Compound 108, (S)-3-(6-((1-((3-chlorophenyl)sulfonyl)pyrrolidin-3-yl)oxy)pyridin-3-yl)-5-(trifluoromethyl)-1,2,4-oxadiazole]: over 70%.
Next, `O=S(=O)(c1ccc(C(F)(F)F)cc1)N1CC[C@H](Oc2ccc(-c3noc(C(F)(F)F)n3)cn2)C1` [Compound 109, (S)-5-(trifluoromethyl)-3-(6-((1-((4-(trifluoromethyl)phenyl)sulfonyl)pyrrolidin-3-yl)oxy)pyridin-3-yl)-1,2,4-oxadiazole]: over 70%.
As to `CCCS(=O)(=O)N1CC[C@H](Oc2ccc(-c3noc(C(F)(F)F)n3)cn2)C1` [Compound 110, (S)-3-(6-((1-(propylsulfonyl)pyrrolidin-3-yl)oxy)pyridin-3-yl)-5-(trifluoromethyl)-1,2,4-oxadiazole], the pest or weed control at 500 ppm is over 70%.
Next, `CS(=O)(=O)N1CC[C@H](Oc2ccc(-c3noc(C(F)(F)F)n3)cn2)C1` [Compound 111, (S)-3-(6-((1-(methylsulfonyl)pyrrolidin-3-yl)oxy)pyridin-3-yl)-5-(trifluoromethyl)-1,2,4-oxadiazole]: over 70%; `Cc1cccc(S(=O)(=O)N2CC[C@H](Oc3ccc(-c4noc(C(F)(F)F)n4)cn3)C2)c1` [Compound 112, (S)-3-(6-((1-(m-tolylsulfonyl)pyrrolidin-3-yl)oxy)pyridin-3-yl)-5-(trifluoromethyl)-1,2,4-oxadiazole]: over 70%; `O=S(=O)(N1CC[C@H](Oc2ccc(-c3noc(C(F)(F)F)n3)cc2)C1)C(F)(F)F` [Compound 114, (S)-5-(trifluoromethyl)-3-(4-((1-((trifluoromethyl)sulfonyl)pyrrolidin-3-yl)oxy)phenyl)-1,2,4-oxadiazole]: over 70%.
Next, `CCCS(=O)(=O)N1CC[C@H](Oc2ccc(-c3noc(C(F)(F)F)n3)cc2)C1` [Compound 115, (S)-3-(4-((1-(propylsulfonyl)pyrrolidin-3-yl)oxy)phenyl)-5-(trifluoromethyl)-1,2,4-oxadiazole]: over 70%.
